Tests used:
CCR5 = target: T1, CCR5 (Homo sapiens, UniProt P51681); experiment: Calcium mobilization assay (RANTES-induced, Fluo-4 AM); assay type: cell-based; settings: for IC50: CHO cells stably expressing CCR5 and Gα16, RANTES 30 nM, read-out: IC50 (antagonistic activity against CCR5); for effect of structural change on potency relative to compound 2: SAR statement from IC50 values
T1 construct: expressed in transfected cells
Description: For the primary assay, the percent inhibitory rates of the compounds 1, 2 and 2a-l at 1 μM were measured. Except compounds 2a and 2c, the other twelve compounds were remarkably antagonist of CCR5 activity. Therefore, we determined their IC50 values (Table 1).
CHO cells stably expressing CCR5 and Gα16 were loaded with 2 μmol/L Fluo-4 AM in Hanks balanced salt solution (HBSS, containing KCl 5.4 mM, Na2HPO4 0.3 mM, KH2PO4 0.4 mM, NaHCO3 4.2 mM, CaCl2 1.3 mM, MgCl2 0.5 mM, Mg2SO4 0.6 mM, NaCl 137 mM, BSA 5 g/L, Glucose 5.6 mM, Sulfinpyrazone 250 μM, pH 7.4) at 37 °C for 45 minutes. After the cells being rinsed with the reaction buffer, 50 μL HBSS containing known antagonists (positive control), compounds of interest or DMSO (negative control, final concentration 1%) were added. After incubation at room temperature for 10 minutes, 25 μL RANTES (final concentration 30 nM) was dispensed into the well using a FlexStation II micro-plate reader (Molecular Devices, Sunnyvale, CA, USA) and intracellular calcium change was recorded with an excitation wavelength of 485 nm and emission wavelength of 525 nm. The half maximal inhibitory concentrations (IC50s) of compounds were determined with GraphPad Prism software by constructing their dose-response curves.

T1 sequence (P51681 whole entry): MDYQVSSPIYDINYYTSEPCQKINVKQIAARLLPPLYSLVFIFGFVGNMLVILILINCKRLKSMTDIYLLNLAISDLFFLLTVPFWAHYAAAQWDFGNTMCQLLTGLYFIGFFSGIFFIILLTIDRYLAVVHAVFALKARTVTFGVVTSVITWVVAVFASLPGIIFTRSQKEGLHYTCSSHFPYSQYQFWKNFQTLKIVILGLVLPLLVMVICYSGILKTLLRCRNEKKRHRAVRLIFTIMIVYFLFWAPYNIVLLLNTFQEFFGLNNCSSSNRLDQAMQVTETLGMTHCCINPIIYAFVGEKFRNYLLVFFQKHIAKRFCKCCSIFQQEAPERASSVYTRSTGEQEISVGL

Structure (SMILES)	IC50 (CCR5)	effect of structural change on potency relative to compound 2 (CCR5)	melting point	fold increase in potency compared with compound 2 (CCR5; ratio of IC50 values, vs compound 2)	fold change of IC50 compared to compound 1 (CCR5; ratio of IC50 values, vs compound 1)
Cc1ccc(S(=O)(=O)N[C@@H](CCN2CCN(c3ccnc4cc(Cl)ccc34)CC2)c2ccccc2)cc1 [Compound 2f, N-((S)-3-(4-(7-Chloroquinolin-4-yl)piperazin-1-yl)-1-phenylpropyl)-4-methylbenzenesulfonamide]	> 10000 nM	decrease or loss of potency	132 to 136 °C		
O=C(NC(CCN1CCN(c2ccnc3cc(Cl)ccc23)CC1)c1ccccc1)C1CCC(F)(F)CC1 (centres unmarked) [Compound 2k, N-(3-(4-(7-Chloroquinolin-4-yl)piperazin-1-yl)-1-phenylpropyl)-4,4-difluorocyclohexanecarboxamide]	669 nM	no effect on potency			
O=C(N[C@@H](CCN1CCN(c2ccc3ccccc3n2)CC1)c1ccccc1)C1CCC(F)(F)CC1 [Compound 2j, N-((S)-3-(4-(Quinolin-2-yl)piperazin-1-yl)-1-phenylpropyl)-4,4-difluorocyclohexanecarboxamide]	233 nM		50 to 53 °C	3 fold	
O=C(Cc1ccccc1)N[C@@H](CCN1CCN(c2ccnc3cc(Cl)ccc23)CC1)c1ccccc1 [Compound 2e, N-((S)-3-(4-(7-Chloroquinolin-4-yl)piperazin-1-yl)-1-phenylpropyl)-2-phenylacetamide]	> 10000 nM		69 to 72 °C		
O=C(N[C@@H](CCN1CCN(c2ncccn2)CC1)c1ccccc1)C1CCC(F)(F)CC1 [Compound 2g, N-((S)-3-(4-(Pyrimidin-2-yl)piperazin-1-yl)-1-phenylpropyl)-4,4-difluorocyclohexanecarboxamide]	> 1000 nM				
O=C(C1CCC(F)(F)CC1)N1CCN(c2ccnc3cc(Cl)ccc23)CC1 [Compound 2l, (4-(7-chloroquinolin-4-yl)piperazin-1-yl)(4,4-difluorocyclohexyl)methanone]	> 1000 nM	nearly leads to a loss of potency			
O=C(N[C@@H](CCN1CCN(c2ccnc3cc(Cl)ccc23)CC1)c1ccccc1)C1CCC(F)(F)CC1 [Compound 2, N-((S)-3-(4-(7-Chloroquinolin-4-yl)piperazin-1-yl)-1-phenylpropyl)-4,4-difluorocyclohexanecarbox-amide]	692 nM				3 fold
O=C(N[C@@H](CCN1CCN(c2ccnc3cc(Cl)ccc23)CC1)c1ccccc1)c1ccc(F)cc1 [Compound 2a, N-((S)-3-(4-(7-Chloroquinolin-4-yl)piperazin-1-yl)-1-phenylpropyl)-4-fluorobenzamide]			77 to 79 °C		
O=C(N[C@@H](CCN1CCN(c2ccncc2)CC1)c1ccccc1)C1CCC(F)(F)CC1 [Compound 2i, N-((S)-3-(4-(pyridin-4-yl)piperazin-1-yl)-1-phenylpropyl)-4,4-difluorocyclohexanecarboxamide]	> 10000 nM				
O=C(CCC(=O)N1CCN(c2ccnc3cc(Cl)ccc23)CC1)N1CCN(c2ccnc3cc(Cl)ccc23)CC1 [Compound 1, 1,4-bis(4-(7-chloroquinolin-4-yl)piperazin-1-yl)butane-1,4-dione]	2000 nM				
O=C(N[C@@H](CCN1CCN(c2ccnc3cc(Cl)ccc23)CC1)c1ccccc1)C1CCCCC1 [Compound 2b, N-((S)-3-(4-(7-Chloroquinolin-4-yl)piperazin-1-yl)-1-phenylpropyl)cyclohexanecarboxamide]	2660 nM		153 to 158 °C		
O=C(N[C@@H](CCN1CCN(c2ncnc3[nH]cnc23)CC1)c1ccccc1)C1CCC(F)(F)CC1 [Compound 2h, N-((S)-3-(4-(9H-Purin-6-yl)piperazin-1-yl)-1-phenylpropyl)-4,4-difluorocyclohexanecarboxamide]	> 10000 nM				
O=C1CCC(C(=O)N[C@@H](CCN2CCN(c3ccnc4cc(Cl)ccc34)CC2)c2ccccc2)CC1 [Compound 2d, N-((S)-3-(4-(7-Chloroquinolin-4-yl)piperazin-1-yl)-1-phenylpropyl)-4-oxocyclohexanecarboxamide]	> 1000 nM		56 to 59 °C		
